For 55 compounds, EC50 results are on record in PubChem BioAssay AID1339 (NMMLSC, 2008).

By EC50 is commonly meant the midpoint of the concentration-response curve.

This test deals with Ras-related C3 botulinum toxin substrate 1 (Homo sapiens) (UniProt P63000). The experiment in a line: inhibitors of activated mutant Rac1 GTP binding, dose response, biochemical, multiplex, GST-Rac1 beads, Bodipy-FL-GTP, flow cytometry (AID 1339).

As for `Cc1cc(C)cc(OCCSc2nc3ccccc3n2CC(=O)O)c1`, the EC50 was 23.6 µM.

Take `COc1cc(C(=O)OCC(=O)Nc2ccc3c(c2)OC(F)(F)O3)ccc1OCc1c(C)noc1C`: the EC50 was 14.2 µM.

As to `COc1ccc(C(=O)c2c(O)cc(-c3ccc(OC)cc3)oc2=O)cc1`, the EC50 was 3.57 µM.

As for `Cc1ccc(C(C)C)c(OCCn2cc(C(=O)O)c3ccccc32)c1`, the concentration giving a half-maximal response (EC50) was 0.635 µM.

As for `Cc1cc(C)c(C)c(C(=O)c2ccccc2C(=O)O)c1C`, the EC50 was 1.52 µM.

With `O=C(CSc1ncnc2scc(-c3ccccc3)c12)N1CCN(Cc2ccc3c(c2)OCO3)CC1`, the EC50 was 61.1 µM.

On to `COc1ccc(OC)c(-c2c3cc(O)c(=O)cc-3oc3cc(O)c(O)cc23)c1`, for which the EC50 is 0.28 µM.

As to `CCn1nc(C(=O)OCC(=O)c2cc(C)n(Cc3cccs3)c2C)c2ccccc2c1=O`, the EC50 was 45.6 µM.

In the case of `CSc1ccc(/C=N/NC(=O)c2cc(O)cc(O)c2)cc1`, the EC50 is 55.4 µM.

On to `Cc1ccc(C)c(OCCn2cc(C(=O)O)c3ccccc32)c1`, for which the EC50 is 0.222 µM.

On to `COc1ccc(Cl)cc1NCc1sc(C(=O)O)cc1C`, for which the half-maximal effective concentration (EC50) was 2.19 µM.

Turning to `CCCOc1ccc(OCCSc2nc3ccccc3n2CC(=O)O)cc1`, the half-maximal effective concentration (EC50) was 35.6 µM.

Take `O=C(O)c1cn(CCOc2ccccc2)c2ccccc12`: the EC50 was 0.857 µM.

Regarding `COc1ccccc1OCc1cccc(C(=O)O)c1`, the EC50 is 9.53 µM.

As to `O=[N+]([O-])c1cc2oc3c(c2c(C=NCc2ccccc2)c1O)CCCC3`, the EC50 is 5.79 µM.

Regarding `O=C(O)c1ccccc1NCc1c(Cl)cccc1Cl`, the EC50 is 34.1 µM.

In the case of `CC(=O)c1ccc(C#CC(=O)c2ccc([N+](=O)[O-])cc2)cc1`, the EC50 was 1.22 µM.

Regarding `O=C(Nc1nnc(-c2ccc3c(c2)OCCO3)o1)c1ccc(Cc2ccccc2)cc1`, the EC50 is 10.2 µM.

`Cc1ccccc1C(=O)Nc1ccc2c(C#N)c3nc4ccccc4nc3n2c1`: the EC50 is 0.889 µM.

Turning to `O=C(O)/C=C/c1cn(Cc2ccccc2)nc1-c1cccs1`, the concentration giving a half-maximal response (EC50) is 1.94 µM.

Turning to `Cc1ccc(Nc2cc(C(=O)O)c3ccccc3n2)cc1C`, the EC50 is 5.56 µM.

Consider `O=C(C#Cc1ccccc1)c1cccc([N+](=O)[O-])c1`, for which the EC50 is 23.5 µM.

Turning to `O=C(O)c1cc(Sc2ccc(F)cc2)nc2ccccc12`, the EC50 was 46.8 µM.

For `Cc1ccc(SC(CC(=O)c2ccc(C(C)(C)C)cc2)C(=O)O)cc1` (stereo not given), the EC50 was 12.3 µM.

In the case of `O=C(C#Cc1ccc(F)cc1)c1ccc([N+](=O)[O-])cc1`, the EC50 was 3.92 µM.

`COc1ccccc1NCc1sc(C(=O)O)cc1C`: the EC50 is 4.26 µM.

`O=C(c1nnsc1S(=O)(=O)c1ccc(Cl)cc1)N1CCOCC1`: the EC50 is 13.7 µM.

As for `Cc1cc(OCCSc2nc3ccccc3n2CC(=O)O)ccc1Cl`, the EC50 is 25.1 µM.

With `Cc1cc(C(=O)Cn2nc(C(=O)O)c3ccccc3c2=O)c(C)n1-c1ccc(OC(F)F)cc1`, the EC50 was 3.55 µM.

Take `CCOc1ccc(/C=C2\SC(N3CCc4ccccc4C3)=NC2=O)cc1`: the EC50 was 10.6 µM.

On to `COc1cccc(CNCc2sc(C(=O)O)cc2C)c1`, for which the EC50 was 25.9 µM.

Take `Cc1ccc(C(C)C)c(OCCSc2nc3ccccc3n2CC(=O)O)c1`: the EC50 is 33.5 µM.

In the case of `COc1ccccc1OCCn1cc(C(=O)O)c2ccc(Cl)cc21`, the EC50 was 1.75 µM.

On to `Cc1nn(Cc2ccccc2)c(Cl)c1C(=O)O`, for which the 50% effective concentration (EC50) was 21.7 µM.

For `Cc1cc(C(=O)Oc2ccccc2C(=O)O)c(C)o1`, the EC50 was 0.665 µM.

For `OC(CNCCc1ccc(Cl)cc1)COc1ccc2ccccc2c1` (stereo not given), the EC50 is 39 µM.

Take `N#Cc1c(-c2ccccc2)nc(SCC(=O)Nc2ccccc2)[nH]c1=O`: the EC50 is 29.5 µM.

For the compound `O=C(O)c1ccccc1Sc1ncnc2sc3c(c12)CCC3`, the EC50 is 1.08 µM.

As to `Cc1ccc(-n2c(-c3cnccn3)n[nH]c2=S)c(Br)c1`, the EC50 was 28 µM.

Consider `O=C(C#Cc1ccccc1)c1ccc([N+](=O)[O-])cc1`, for which the EC50 was 6.48 µM.

On to `COC(=O)c1cccnc1SCCc1ccccc1`, for which the EC50 is 36.6 µM.

Take `COc1ccc(C(=O)Nc2cc(Cl)ccc2C(=O)O)cc1`: the EC50 is 22.1 µM.

For `CCc1ccc(NS(=O)(=O)c2ccc3[nH]cc(C(=O)N4CCc5ccccc54)c(=O)c3c2)cc1`, the concentration for a half-maximal effect (EC50) is 20.6 µM.

For `CS(=O)(=O)c1ccc(C(=O)OCC(=O)NC(=O)C2CCCCC2)cc1[N+](=O)[O-]`, the EC50 was 43.2 µM.

For the compound `COc1cccc(NC(=O)COC(=O)/C=C/c2ccc(Cl)cc2Cl)c1`, the concentration for a half-maximal effect (EC50) is 13.3 µM.

Consider `CC(C)(C)C#CC(=O)c1ccc([N+](=O)[O-])cc1`, for which the EC50 is 65.1 µM.

In the case of `Cc1cc(NC(=O)CSc2nc(-c3ccccc3)c(C#N)c(=O)[nH]2)no1`, the EC50 was 12.9 µM.

As for `CC(=O)Nc1cccc(C#CC(=O)c2ccc([N+](=O)[O-])cc2)c1`, the EC50 was 14.2 µM.

In the case of `CC(=O)c1c(C)[nH]c(C(=O)N2CCc3ccccc3C2)c1C`, the EC50 was 2.53 µM.

On to `CCN(CC)c1ccc2cc(-c3nc(-c4ccc(OC)cc4)cs3)c(=O)oc2c1`, for which the EC50 is 0.553 µM.

In the case of `O=C(O)c1cc(Sc2ccc(Cl)cc2)nc2ccccc12`, the EC50 was 69.4 µM.

`CCOC(=O)c1cc([N+](=O)[O-])c([N+](=O)[O-])cc1NC(C)=O`: the concentration giving a half-maximal response (EC50) is 31.5 µM.

Take `CCOC(=O)c1c(NC(=O)/C=C/c2ccc3c(c2)OCO3)sc(C)c1CC`: the EC50 was 30.1 µM.

In the case of `CNC(=S)N=Nc1c(O)[nH]c2ccccc12`, the EC50 is 91.6 µM.

Regarding `Cc1ccccc1OCCn1c(C)c(C(=O)O)c2ccccc21`, the EC50 was 0.625 µM.
